Source: US10294202B2, “Pyrrolidinones as herbicides” (FMC Corporation, priority 2013, dated 2019)

What was measured:
[1] = system: barnyardgrass; assay: Test A pre-/postemergence herbicide test; type: in vivo, Echinochloa crus-galli
Outline: (§1)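 Seeds in loam–sand blend received preemergence directed soil spray; separately, plants 2–10 cm at one- to two-leaf stage received postemergence spray, both with test chemicals in non-phytotoxic solvent with surfactant. After ~10 days in greenhouse, injury rated visually against untreated controls, 0 (no effect) to 100 (complete control).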

[2] = system: ryegrass, Italian; assay: Test A pre-/postemergence herbicide test; type: in vivo, Lolium multiflorum
Outline: as §1

[3] = system: pigweed; assay: Test A pre-/postemergence herbicide test; type: in vivo, Amaranthus retroflexus
Outline: as §1

[4] = system: corn; assay: Test C pre-/postemergence herbicide test; type: in vivo, Zea mays
Outline: (§2)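 Pre-emergence: seeds sown in loam/sand blend and treated with compound in surfactant-containing solvent. Post-emergence: plants at 2–18 cm (1- to 4-leaf stage) in peat-based medium sprayed with the same formulation. Visual rating versus controls after 13–15 days in greenhouse, scale 0 (no effect) to 100 (complete control).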

[5] = system: nutsedge, yellow; assay: Test C pre-/postemergence herbicide test; type: in vivo, Cyperus esculentus
Outline: as §2

[6] = system: ragweed; assay: Test C pre-/postemergence herbicide test; type: in vivo, Ambrosia elatior
Outline: as §2

[7] = system: kochia; assay: Test C pre-/postemergence herbicide test; type: in vivo, Kochia scoparia; settings: Postemergence
Outline: as §2

[8] = system: oat, wild; assay: Test C pre-/postemergence herbicide test; type: in vivo, Avena fatua; settings: Postemergence
Outline: as §2

[9] = system: chickweed; assay: Test C postemergence herbicide test; type: in vivo, Stellaria media
Outline: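 Response is scored visually on a 0–100 scale (100 = complete control) relative to untreated controls, 13 to 15 days after treatment. Plants were sprayed postemergence at the 1- to 4-leaf stage (2 to 18 cm tall) and kept in a greenhouse.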

[10] = 125 g ai/ha, visual rating, 0 to 100 scale, 0 no effect, 100 complete control, approximately 10 days, preemergence
[11] = Postemergence, 125 g ai/ha, 0 to 100 scale, 0 is no effect, 100 is complete control
[12] = preemergence, 500 g ai/ha, 0 to 100 scale, 0 is no effect and 100 is complete control
[13] = Postemergence, 31 g ai/ha, scale 0 to 100 (0 no effect, 100 complete control)
[14] = Postemergence, 62 g ai/ha, scale 0 (no effect) to 100 (complete control)
[15] = Postemergence, 125 g ai/ha, scale 0 to 100 (0 no effect, 100 complete control)
[16] = Postemergence, 250 g ai/ha, scale 0 to 100 (0 no effect, 100 complete control)
[17] = Preemergence, 31 g ai/ha, scale 0 to 100, 0 is no effect and 100 is complete control
[18] = Preemergence, 62 g ai/ha, scale 0 to 100 (0 no effect, 100 complete control)
[19] = Preemergence, 125 g ai/ha, scale 0 to 100 (0 no effect, 100 complete control)
[20] = 31 g ai/ha, scale 0 to 100 (0 no effect, 100 complete control)
[21] = 62 g ai/ha, scale 0 (no effect) to 100 (complete control)
[22] = 125 g ai/ha, scale 0 to 100 (0 no effect, 100 complete control)
[23] = 250 g ai/ha, scale 0 to 100 (0 no effect, 100 complete control)
[24] = Postemergence, 125 g ai/ha, visual rating on 0 to 100 scale (0 no effect, 100 complete control), approx. 10 days
[25] = Postemergence, 500 g ai/ha, 0 to 100 scale (0 no effect, 100 complete control)
[26] = Preemergence, 125 g ai/ha, 0 to 100 scale where 0 is no effect and 100 is complete control
[27] = Preemergence, 500 g ai/ha, visual rating on 0 to 100 scale (0 no effect, 100 complete control)

SMILES: O=C1NCC(c2cccc(C(F)(F)F)c2)C1C(=O)Nc1ccc(F)cc1F (racemic) [Compound 207]
- Plant response rating, Barnyardgrass [1, 10]: 90
- Plant response rating, Barnyardgrass [1, 11]: 80
- Barnyardgrass plant response rating (0 to 100 scale, 0 is no effect, 100 is complete control) ([1]; Postemergence, 500 g ai/ha): 90
- Plant response rating, Barnyardgrass [1, 12]: 90
- Plant response rating, Ryegrass, Italian [2, 10]: 20
- Plant response rating, Ryegrass, Italian [2, 11]: 0
- Ryegrass, Italian plant response rating (0 to 100 scale, 0 is no effect, 100 is complete control) ([2]; Postemergence, 500 g ai/ha): 50
- Plant response rating, Ryegrass, Italian [2, 12]: 40
- Plant response rating, Pigweed [3, 10]: 0
- Plant response rating, Pigweed [3, 11]: 0
- Pigweed plant response rating (0 to 100 scale, 0 is no effect, 100 is complete control) ([3]; Postemergence, 500 g ai/ha): 0
- Plant response rating, Pigweed [3, 12]: 20
- Plant response rating, Corn [4, 13]: 0
- Plant response rating, Corn [4, 14]: 0
- Plant response rating, Corn [4, 15]: 0
- Plant response rating, Corn [4, 16]: 5
- Corn plant response rating [4, 17]: 0
- Corn plant response rating [4, 18]: 0
- Plant response rating, Corn [4, 19]: 55
- Plant response rating (scale of 0 to 100), Corn ([4]; Preemergence, 250 g ai/ha): 30
- Plant response rating, Nutsedge, Yellow [5, 13]: 10
- Plant response rating, Nutsedge, Yellow [5, 14]: 0
- Plant response rating, Nutsedge, Yellow [5, 15]: 0
- Plant response rating, Nutsedge, Yellow [5, 16]: 0
- Nutsedge, Yellow plant response rating [5, 17]: 0
- Nutsedge, Yellow plant response rating [5, 18]: 0
- Plant response rating, Nutsedge, Yellow [5, 19]: 0
- Plant response rating (scale of 0 to 100), Nutsedge, Yellow ([5]; Preemergence, 250 g ai/ha): 0
- Plant response rating, Ragweed [6, 13]: 0
- Plant response rating, Ragweed [6, 14]: 0
- Plant response rating, Ragweed [6, 15]: 0
- Plant response rating, Ragweed [6, 16]: 15
- Ragweed plant response rating [6, 17]: 0
- Ragweed plant response rating [6, 18]: 0
- Plant response rating, Ragweed [6, 19]: 0
- Plant response rating (scale of 0 to 100), Ragweed ([6]; Preemergence, 250 g ai/ha): 5
- Plant response rating, Kochia [7, 20]: 0
- Plant response rating, Kochia [7, 21]: 0
- Plant response rating, Kochia [7, 22]: 0
- Plant response rating, Kochia [7, 23]: 30
- Plant response rating, Oat, Wild [8, 20]: 0
- Plant response rating, Oat, Wild [8, 21]: 0
- Plant response rating, Oat, Wild [8, 22]: 0
- Plant response rating, Oat, Wild [8, 23]: 0
- Plant response rating, Chickweed [9, 20]: 30
- Plant response rating, Chickweed [9, 21]: 50
- Plant response rating, Chickweed [9, 22]: 60
- Plant response rating, Chickweed [9, 23]: 90

SMILES: CN1CC(c2ccc(F)c(F)c2)C(C(=O)Nc2ccccc2F)C1=O (stereo not drawn) [Compound 302]
- Plant response rating, Barnyardgrass [1, 24]: 90
- Plant response rating, Barnyardgrass [1, 25]: 90
- Plant response rating, Barnyardgrass [1, 26]: 90
- Barnyardgrass plant response rating [1, 27]: 90
- Plant response rating, Ryegrass, Italian [2, 24]: 0
- Plant response rating, Ryegrass, Italian [2, 25]: 60
- Plant response rating, Ryegrass, Italian [2, 26]: 0
- Ryegrass, Italian plant response rating [2, 27]: 60
- Plant response rating, Pigweed [3, 24]: 0
- Plant response rating, Pigweed [3, 25]: 10
- Plant response rating, Pigweed [3, 26]: 10
- Pigweed plant response rating [3, 27]: 60
- Plant response rating, Corn [4, 13]: 0
- Plant response rating, Corn [4, 14]: 0
- Plant response rating, Corn [4, 15]: 0
- Plant response rating, Corn [4, 16]: 0
- Corn plant response rating [4, 17]: 0
- Corn plant response rating [4, 18]: 0
- Plant response rating, Corn [4, 19]: 0
- Plant response rating (scale of 0 to 100), Corn ([4]; Preemergence, 250 g ai/ha): 50
- Plant response rating, Nutsedge, Yellow [5, 13]: 0
- Plant response rating, Nutsedge, Yellow [5, 14]: 0
- Plant response rating, Nutsedge, Yellow [5, 15]: 0
- Plant response rating, Nutsedge, Yellow [5, 16]: 20
- Nutsedge, Yellow plant response rating [5, 17]: 0
- Nutsedge, Yellow plant response rating [5, 18]: 0
- Plant response rating, Nutsedge, Yellow [5, 19]: 0
- Plant response rating (scale of 0 to 100), Nutsedge, Yellow ([5]; Preemergence, 250 g ai/ha): 10
- Plant response rating, Ragweed [6, 13]: 10
- Plant response rating, Ragweed [6, 14]: 20
- Plant response rating, Ragweed [6, 15]: 20
- Plant response rating, Ragweed [6, 16]: 55
- Ragweed plant response rating [6, 17]: 35
- Ragweed plant response rating [6, 18]: 5
- Plant response rating, Ragweed [6, 19]: 5
- Plant response rating (scale of 0 to 100), Ragweed ([6]; Preemergence, 250 g ai/ha): 10
- Plant response rating, Kochia [7, 20]: 0
- Plant response rating, Kochia [7, 21]: 0
- Plant response rating, Kochia [7, 22]: 0
- Plant response rating, Kochia [7, 23]: 60
- Plant response rating, Oat, Wild [8, 20]: 0
- Plant response rating, Oat, Wild [8, 21]: 0
- Plant response rating, Oat, Wild [8, 22]: 0
- Plant response rating, Oat, Wild [8, 23]: 0
- Plant response rating, Chickweed [9, 20]: 0
- Plant response rating, Chickweed [9, 21]: 0
- Plant response rating, Chickweed [9, 22]: 5
- Plant response rating, Chickweed [9, 23]: 70

SMILES: O=C1NCC(c2ccc(C(F)(F)F)cc2)C1C(=O)Nc1ccc(F)c(F)c1F (stereo not drawn) [Compound 232]
- Plant response rating, Barnyardgrass [1, 10]: 90
- Plant response rating, Barnyardgrass [1, 11]: 80
- Barnyardgrass plant response rating (0 to 100 scale, 0 is no effect, 100 is complete control) ([1]; Postemergence, 500 g ai/ha): 90
- Plant response rating, Barnyardgrass [1, 12]: 90
- Plant response rating, Ryegrass, Italian [2, 10]: 40
- Plant response rating, Ryegrass, Italian [2, 11]: 40
- Ryegrass, Italian plant response rating (0 to 100 scale, 0 is no effect, 100 is complete control) ([2]; Postemergence, 500 g ai/ha): 50
- Plant response rating, Ryegrass, Italian [2, 12]: 80
- Plant response rating, Pigweed [3, 10]: 50
- Plant response rating, Pigweed [3, 11]: 80
- Pigweed plant response rating (0 to 100 scale, 0 is no effect, 100 is complete control) ([3]; Postemergence, 500 g ai/ha): 90
- Plant response rating, Pigweed [3, 12]: 60
- Plant response rating, Corn [4, 13]: 0
- Plant response rating, Corn [4, 14]: 0
- Plant response rating, Corn [4, 15]: 0
- Plant response rating, Corn [4, 16]: 0
- Corn plant response rating [4, 17]: 0
- Corn plant response rating [4, 18]: 35
- Plant response rating, Corn [4, 19]: 70
- Plant response rating (scale of 0 to 100), Corn ([4]; Preemergence, 250 g ai/ha): 75
- Plant response rating, Nutsedge, Yellow [5, 13]: 0
- Plant response rating, Nutsedge, Yellow [5, 14]: 0
- Plant response rating, Nutsedge, Yellow [5, 15]: 5
- Plant response rating, Nutsedge, Yellow [5, 16]: 5
- Nutsedge, Yellow plant response rating [5, 17]: 0
- Nutsedge, Yellow plant response rating [5, 18]: 0
- Plant response rating, Nutsedge, Yellow [5, 19]: 0
- Plant response rating (scale of 0 to 100), Nutsedge, Yellow ([5]; Preemergence, 250 g ai/ha): 100
- Plant response rating, Ragweed [6, 13]: 75
- Plant response rating, Ragweed [6, 14]: 80
- Plant response rating, Ragweed [6, 15]: 85
- Plant response rating, Ragweed [6, 16]: 75
- Ragweed plant response rating [6, 17]: 65
- Ragweed plant response rating [6, 18]: 85
- Plant response rating, Ragweed [6, 19]: 85
- Plant response rating (scale of 0 to 100), Ragweed ([6]; Preemergence, 250 g ai/ha): 90
- Plant response rating, Kochia [7, 20]: 60
- Plant response rating, Kochia [7, 21]: 70
- Plant response rating, Kochia [7, 22]: 70
- Plant response rating, Kochia [7, 23]: 75
- Plant response rating, Oat, Wild [8, 20]: 0
- Plant response rating, Oat, Wild [8, 21]: 0
- Plant response rating, Oat, Wild [8, 22]: 0
- Plant response rating, Oat, Wild [8, 23]: 30
- Plant response rating, Chickweed [9, 20]: 70
- Plant response rating, Chickweed [9, 21]: 85
- Plant response rating, Chickweed [9, 22]: 85
- Plant response rating, Chickweed [9, 23]: 85
